Test results: patent publication US7101878B1 (Agouron Pharmaceuticals, Inc., priority 1998, dated 2006)
Like-named read-outs stand apart in the source and are kept apart here.

How the values were obtained:
[1] = biological target: T1, rat GnRH receptor (Rattus norvegicus, UniProt P30969); assay: Radioligand binding, 125I-GnRH-A, rat pituitary membranes; design: membranes were prepared from rat pituitary; from tissue; host or cells: rat pituitary
T1 sequence (P30969 1-327): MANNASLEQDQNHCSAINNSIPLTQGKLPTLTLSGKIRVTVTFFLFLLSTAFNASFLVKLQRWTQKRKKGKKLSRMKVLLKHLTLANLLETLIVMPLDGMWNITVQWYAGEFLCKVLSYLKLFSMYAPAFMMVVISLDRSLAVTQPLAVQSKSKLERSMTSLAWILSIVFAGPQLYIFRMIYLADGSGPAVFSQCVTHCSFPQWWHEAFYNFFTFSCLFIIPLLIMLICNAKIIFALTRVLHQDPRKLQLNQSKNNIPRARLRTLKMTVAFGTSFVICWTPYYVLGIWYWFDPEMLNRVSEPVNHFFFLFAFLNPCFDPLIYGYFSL
Procedure, shortened: (§1)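 Bound label captured on 0.1% polyethyleneimine-treated GF/C filters, washed three times with PBS, counted. IC50 derived; identical set-up for every species.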

[2] = biological target: 5-HT7 (Homo sapiens, UniProt P34969); assay: Selectivity: 5-HT7
Sequence of 5-HT7 (P34969 whole entry, species assumed): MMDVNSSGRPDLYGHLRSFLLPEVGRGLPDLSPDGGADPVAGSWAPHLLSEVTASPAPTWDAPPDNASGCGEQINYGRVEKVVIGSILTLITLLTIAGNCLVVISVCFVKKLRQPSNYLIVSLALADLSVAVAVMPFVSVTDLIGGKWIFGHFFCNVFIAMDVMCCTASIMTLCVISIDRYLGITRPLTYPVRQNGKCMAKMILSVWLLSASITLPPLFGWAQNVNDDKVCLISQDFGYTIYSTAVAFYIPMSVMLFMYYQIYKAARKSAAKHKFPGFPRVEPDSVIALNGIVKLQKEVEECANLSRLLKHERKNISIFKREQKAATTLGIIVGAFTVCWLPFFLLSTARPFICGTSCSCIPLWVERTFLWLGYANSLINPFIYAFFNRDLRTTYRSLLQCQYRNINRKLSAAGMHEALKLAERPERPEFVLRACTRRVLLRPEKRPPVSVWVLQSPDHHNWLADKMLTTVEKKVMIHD

[3] = biological target: D2 Dopamine (Homo sapiens, UniProt P14416); assay: Selectivity: D2 Dopamine
Sequence of D2 Dopamine (P14416 whole entry): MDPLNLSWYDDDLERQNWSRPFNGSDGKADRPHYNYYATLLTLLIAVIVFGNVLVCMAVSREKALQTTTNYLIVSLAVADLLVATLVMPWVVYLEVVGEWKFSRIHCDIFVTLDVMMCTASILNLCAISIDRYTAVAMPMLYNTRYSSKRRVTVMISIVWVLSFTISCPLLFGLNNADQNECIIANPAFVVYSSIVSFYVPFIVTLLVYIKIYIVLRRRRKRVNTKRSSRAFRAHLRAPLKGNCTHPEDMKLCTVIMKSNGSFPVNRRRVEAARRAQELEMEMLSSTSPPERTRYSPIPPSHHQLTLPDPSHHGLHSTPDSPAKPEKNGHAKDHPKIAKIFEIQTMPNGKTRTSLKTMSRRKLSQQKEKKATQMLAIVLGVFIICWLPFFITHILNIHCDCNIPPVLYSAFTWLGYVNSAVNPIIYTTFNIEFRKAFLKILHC

[4] = Pharmacokinetic studies / bioavailability in rats; format: in vivo, rat; conditions: for Cmax / Tmax / half-life: rat, plasma; for Cmax / Tmax: po
[5] = biological target: T2, human GnRH receptor (Homo sapiens, UniProt P30968); assay: Radioligand binding, 125I-GnRH-A displacement, membranes of HEK 293 cells with human GnRH receptor
T2 construct: expressed in transfected cells; host or cells: HEK 293 (hGnRH-R/293, from Dr. Stuart Sealfon)
T2 sequence (P30968 1-328): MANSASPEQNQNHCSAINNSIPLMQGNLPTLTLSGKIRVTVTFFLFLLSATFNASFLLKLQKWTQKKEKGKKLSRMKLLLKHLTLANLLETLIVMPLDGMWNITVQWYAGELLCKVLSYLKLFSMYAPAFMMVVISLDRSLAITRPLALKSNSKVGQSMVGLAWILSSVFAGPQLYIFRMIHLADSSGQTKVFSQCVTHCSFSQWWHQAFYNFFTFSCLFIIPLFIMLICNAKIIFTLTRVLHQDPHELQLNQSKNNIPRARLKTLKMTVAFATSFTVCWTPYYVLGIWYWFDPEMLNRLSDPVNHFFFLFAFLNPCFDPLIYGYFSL
Procedure, shortened: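 Bound tracer was separated by filtration through polyethyleneimine-soaked GF/C filters and counted by liquid scintillation. IC50 from curve fitting; other species were tested under the same conditions.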

[6] = Metabolism rate, pmol/min/mg at 1 μM, rat male; format: in vitro ADME; conditions: 1 μM compound
[7] = biological target: T3, mouse GnRH receptor (Mus musculus, UniProt Q01776); assay: Radioligand binding, 125I-GnRH-A, 293 cells expressing mouse GnRH receptors
T3 construct: expressed in transfected cells; host or cells: 293 cells
T3 sequence (Q01776 1-327): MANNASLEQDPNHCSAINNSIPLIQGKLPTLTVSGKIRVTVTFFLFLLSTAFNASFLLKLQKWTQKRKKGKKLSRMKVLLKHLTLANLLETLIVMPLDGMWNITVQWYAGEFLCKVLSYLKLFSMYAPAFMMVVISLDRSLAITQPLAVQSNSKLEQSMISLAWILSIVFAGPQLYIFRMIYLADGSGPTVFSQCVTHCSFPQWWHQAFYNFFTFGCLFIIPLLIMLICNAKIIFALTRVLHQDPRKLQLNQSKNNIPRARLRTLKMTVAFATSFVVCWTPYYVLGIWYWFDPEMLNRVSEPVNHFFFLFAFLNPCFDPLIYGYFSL
Procedure, shortened: as §1

[8] = Metabolism rate, pmol/min/mg at 1 μM, human; format: in vitro ADME; conditions: 1 μM compound
[9] = biological target: T1, rat GnRH receptor; assay: Microphysiometry, extracellular acidification rate, GGH3 cells; format: cell-based; conditions: agonist alone
Protocol: These cells have been extensively characterized previously (Kaiser et al., 1997). These cells were grown in low glucose Dulbecco's modified Eagle's medium (DMEM) containing: 100U/mL penicillin/streptomycin, 0.6 g/L G418 and 10% beat-inactivated fetal bovine serum
(§2) This cell line was provided by Dr. Stuart Sealfon, Mount Sinai Medical School New York, N.Y. These cells were grown in DMEM supplemented with 0.2 g/L G418 100 U/ml penicillin/streptomycin and 10% FBS. Both GGH3 and hGnRH-R/293 cells were utilized for both for both total inositol phosphate measurement and for microphysiometry assessment of compound efficacy.
The Cytosensor®Microphysiometer (Molecular Devices, Sunnyvale, Calif.) is a real-time, noninvasive, nonradioactive semiconductor-based system for monitoring the cellular responses to various stimuli. It is based on a pH-sensitive silicon sensor, the light-addressable potentiometric sensor which forms part of a microvolume flow chamber in which cultured cells are immobilized (Pitchford et al., 1995; Parce et al., 1989; Owicki, et al. 1994).
GGH3 cells were seeded in low-buffered minimal essential media (MEM, Sigma) containing 25 mM NaCl and 0.1% BSA at a density of 500,000 cells/capsule onto the polycarbonate membrane (3 μm porosity) of cell capsule cups (Molecular Devices, Sunnyvale, Calif.). Capsule cups were transferred to sensor chambers where cells were held in close apposition to a silicon sensor within a sensor chamber, which measures small changes in pH in the microvolume of the sensor chamber. Low-buffered medium was pumped continuously across the cells at a rate of approximately 100 μl/min from one of two fluid reservoirs. A selection valve determined which reservoir from which fluid was perifused onto the cells.
The Cytosensor®Microphysiometer generates a voltage signal, which is a linear function of pH, every second. In order to measure acidification rates, flow to the sensor chamber containing the cells was periodically interrupted, allowing for excreted acidic metabolites to build up in the extracellular fluid of the cells. In these experiments, cells were maintained at 37° C. on a two minute flow cycle with cells being perfused with media for 80 seconds followed by 40 seconds in which the flow of media was stopped. During this 40 second interval, acidification rates were measured for a 30 sec interval. In this fashion, a single acidification rate was calculated every two min. The Cytosensor®Microphysiometer device contains eight such sensor units, allowing for eight simultaneous experiments to be performed. Each unit was individually programmed utilizing a computer linked to the system.
GGH3 cells were initially equilibrated in the low-buffered MEM media for a period of 30-60 min in which basal acidification rates (measured as μV/sec), in the absence of any stimuli, were monitored. When the basal rate of acidification changed by less than ten percent over a period of twenty minutes, experiments were initiated. Time course experiments were performed to determine the optimal time for agonist exposure prior to acidification rate measurement and the duration of exposure needed to obtain peak acidification responses to various agonists. From these time course experiments, it was determined that cells should be exposed to GnRH peptide agonists at least one minute prior to collection of acidification rate data. Peak acidification rates usually occurred in the first two-minute exposure cycle. In order to capture the peak response to GnRH, cells were exposed to the agonist for a total of four minutes. […] All compounds were tested in a final concentration of 1% DMSO in low-buffered MEM media described above.

[10] = biological target: T4, bovine GnRH receptor (Bos taurus, UniProt P32236); assay: Radioligand binding, 125I-GnRH-A, bovine pituitary membranes
T4 construct: membranes were prepared from bovine pituitary; from tissue; host or cells: bovine pituitary
T4 sequence (P32236 1-328): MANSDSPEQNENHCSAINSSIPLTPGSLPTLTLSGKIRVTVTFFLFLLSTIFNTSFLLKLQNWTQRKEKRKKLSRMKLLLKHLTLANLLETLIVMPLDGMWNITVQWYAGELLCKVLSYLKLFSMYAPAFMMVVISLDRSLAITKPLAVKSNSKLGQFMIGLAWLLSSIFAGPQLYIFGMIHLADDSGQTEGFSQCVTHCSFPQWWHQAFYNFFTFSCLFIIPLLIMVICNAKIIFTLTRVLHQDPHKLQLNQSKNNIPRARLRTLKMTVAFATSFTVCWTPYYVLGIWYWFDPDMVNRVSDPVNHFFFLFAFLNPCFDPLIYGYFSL
Procedure, shortened: as §1

[11] = biological target: T5, hGnRH receptor (Homo sapiens, UniProt P30968); assay: Total inositol phosphates measurement, 293 cells containing the hGnRH receptor; format: cell-based; conditions: for GnRH functional: no species or readout annotated
T5 construct: expressed in transfected cells; host or cells: HEK 293 (hGnRH-R/293, from Dr. Stuart Sealfon)
T5 sequence (P30968 1-328): T2 sequence (P30968 1-328)
Protocol: To assess the activity of the compounds as agonists or antagonists, an assay measuring accumulation of total inositol phosphates was employed. 293 cells containing the hGnRH receptor were plated onto 24-well plates (approximately 200,000 cells/well) using DMEM media. […] The medium was aspirated and the cells rinsed with serum-free DMEM. The medium was aspirated and the cells were then treated with test compounds or vehicle for 30 minutes at 37° C. […] The media was replaced with ice-cold 10 mM formic acid, which stopped the reaction and also served to extract cellular lipids. Inositol phosphates were separated by ion-exchange chromatography on Dowex columns, which were washed with 2.5 mL of 10 mM myoinositol and 10 mM formic acid. The columns were then washed with 5 mL of 60 mM sodium formate and […], and total inositol phosphates were eluted with 5 mL 1M ammonium formate, 0.1 M formic acid. The column eluates were added to liquid scintillation vials containing 15 ml of scintillation cocktail and were counted by liquid scintillation counting.
as §2

[12] = Metabolism rate, pmol/min/mg at 1 μM, monkey; format: in vitro ADME; conditions: 1 μM compound
[13] = Metabolism rate, pmol/min/mg at 1 μM, rat female; format: in vitro ADME; conditions: 1 μM compound
[14] = Metabolism rate, pmol/min/mg at 1 μM, dog; format: in vitro ADME; conditions: 1 μM compound
[15] = female, 10 mg/kg, rat female, p.o. 10 mg/kg, 5 mg/ml solution in 10% DMSO 10% cremophor 80% saline
[16] = means ± SE of at least three experiments performed in duplicate, read-out: Bovine IC50
[17] = second value marked * (mostly in parentheses), asterisk not explained, read-out: hGnRH IC50, value marked *
[18] = male, 20 mg/kg, rat male, p.o. 20 mg/kg, vehicle per footnote (DMSO/cremophor/saline)

SMILES | IC50 ([1]; read-out: rGnRH IC50) [µM] | IC50 ([5]; read-out: hGnRH IC50) [µM] | Rat male pmol/min/mg 1 μM [6] [pmol/min/mg] | IC50 ([7]; read-out: mGnRH IC50) [µM] | Human pmol/min/mg 1 μM [8] [pmol/min/mg] | IC50 [10, 16] [µM] | GnRH functional [11] | half-life ([4]; male, iv, 10 mg/kg, rat male) [h] | IC50 [5, 17] [µM] | IC50 ([10]; read-out: bGnRH IC50) [µM] | also measured
CC(C)C[C@H](NC(=O)CNC(=O)[C@H](Cc1ccc(O)cc1)NC(=O)[C@H](CO)NC(=O)[C@H](Cc1c[nH]c2ccccc12)NC(=O)[C@H](Cc1c[nH]cn1)NC(=O)[C@@H]1CCC(=O)N1)C(=O)N[C@@H](CCCNC(=N)N)C(=O)N1CCC[C@H]1C(=O)NCC(N)=O [GnRH, reference compound] |  |  |  |  |  | 0.013 ± 0.002 |  |  |  |  | extracellular acidification rate of GGH3 cells [9]: dose-dependent increase in the extracellular acidification rate; IC50 ([7]; Mouse IC50, means ± SE of at least three experiments performed in duplicate): 0.011 ± 0.002 µM
Cc1cc2c(cc1Cc1ccc(C(=O)NC[C@H]3CC[C@@H](CNC(=N)N)CC3)o1)C(C)(C)CCC2(C)C [Compound 23] | 0.73 | 0.22 | 141 | 2.1 | 263 |  | Antag- onist | 0.8 | 0.04 | 2.83 | 
Cc1cc2c(cc1Cc1ccc(C(=O)NCC3CCCCC3)o1)C(C)(C)CCC2(C)C [Compound 36] | 2.9 | 0.215 |  | 3.8 |  |  | Antag- onist |  |  | 12.5 | 

The next lines start with results.

IC50 ([1]; read-out: rGnRH IC50) [µM] | IC50 ([5]; read-out: hGnRH IC50) [µM] | Rat male pmol/min/mg 1 μM [6] [pmol/min/mg] | IC50 ([7]; read-out: mGnRH IC50) [µM] | Human pmol/min/mg 1 μM [8] [pmol/min/mg] | IC50 [10, 16] [µM] | GnRH functional [11] | half-life ([4]; male, iv, 10 mg/kg, rat male) [h] | IC50 [5, 17] [µM] | IC50 ([10]; read-out: bGnRH IC50) [µM] | SMILES | also measured
0.53 | 0.11 | 2521 | 0.32 | 497 |  |  |  |  |  | COc1cccc(OC)c1NC(=O)c1ccc(Cc2c(C)cc(C)c(Br)c2C)o1 [Compound 140] | Ki [2]: > 4.4 µM; Ki [3]: 2.3 µM; Cmax [4, 15]: 440 nM; Tmax [4, 15]: 1 h; half-life ([4]; female, rat female): 4.6 h; Fp.o. ([4]; rat female, 5 mg/ml solution in 10% DMSO 10% cremophor 80% saline): 59% (10 mg/kg)^10
0.0016 | 0.012 | 1414 | 0.0013 | 248 |  |  | 1.1 |  |  | Cc1cc2c(cc1Cc1ccc(C(=O)NCc3cccc(CNc4nccc(NC[C@@H]5CCCO5)n4)c3)o1)C(C)(C)CCC2(C)C [Compound 148] | Monkey pmol/min/mg 1 μM [12]: 5019 pmol/min/mg; Cmax [4, 18]: 30 nM; Tmax [4, 18]: 2 h; Fp.o. ([4]; rat male, p.o. 20 mg/kg, vehicle per footnote (DMSO/cremophor/saline)): 3% (20 mg/kg)^1; Rat female pmol/min/mg 1 μM [13]: 133 pmol/min/mg; Dog pmol/min/mg 1 μM [14]: 1960 pmol/min/mg
0.68 | 0.22 |  | 2.3 |  | 3.8 ± 0.22 |  |  | 0.04 |  | Cc1cc2c(cc1Cc1ccc(C(=O)NCC3CCC(CNC(=N)N)CC3)o1)C(C)(C)CCC2(C)C (stereo not shown) [Compound 9] | IC50 ([1]; means ± SE of at least three experiments performed in duplicate, read-out: Rat IC50): 0.68 ± 0.12 µM; Kb [11]: 0.03 µM; IC50 ([5]; means ± SE of at least three experiments performed in duplicate, read-out: Human IC50): 0.22 ± 0.033 µM; IC50 ([7]; means ± SE of at least three experiments performed in duplicate, read-out: Mouse IC50): 2.3 ± 0.46 µM
